Calls of active or inactive are those of the source. The rule behind the calls is not given here.
Columns and labels:
MGC-803 [1] = experiment: Induction of cell cycle arrest in human MGC-803 cells assessed as cells at G0/G1 phase at 7.5 uM incubated for 36 hrs by PI staining based flow cytometry (reference value: 57.1%); assay type: functional
PC-3 [2] = experiment: Upregulation of p27 protein expression in human PC-3 cells at 15 uM by Western blotting analysis; assay type: functional, cell-based; conditions: time 6-48 hrs, TDE = time-dependent effect
PC-3 [3] = experiment: Induction of cell cycle arrest in human PC-3 cells assessed as cells at S phase at 15 uM incubated for 36 hrs by PI staining based flow cytometry (reference value: 22.8%); assay type: functional
[4] = target: S-phase kinase-associated protein 2 (Homo sapiens) (UniProt Q13309); experiment: Binding affinity to SKP2 in human MGC-803 cells assessed as increase in thermal stability at 57 to 68 degreeC incubated for 4 hrs by CETSA; assay type: cell-based
Sequence of S-phase kinase-associated protein 2 (Homo sapiens) (Q13309 whole entry): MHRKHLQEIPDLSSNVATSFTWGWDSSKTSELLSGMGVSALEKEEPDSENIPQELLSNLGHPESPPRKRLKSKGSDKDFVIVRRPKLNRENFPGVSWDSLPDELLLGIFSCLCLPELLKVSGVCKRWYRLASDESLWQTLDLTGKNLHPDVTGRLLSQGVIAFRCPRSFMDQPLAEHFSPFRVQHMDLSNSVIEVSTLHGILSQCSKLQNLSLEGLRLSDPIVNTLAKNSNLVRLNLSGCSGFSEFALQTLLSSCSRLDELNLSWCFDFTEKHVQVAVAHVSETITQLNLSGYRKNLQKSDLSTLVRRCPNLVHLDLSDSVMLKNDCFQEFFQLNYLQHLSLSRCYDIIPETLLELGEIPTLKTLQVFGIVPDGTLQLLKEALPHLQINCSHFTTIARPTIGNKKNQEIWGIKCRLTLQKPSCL

MGC-803 [5] = experiment: Inhibition of colony formation in human MGC-803 cells incubated for 10 days by crystal violet staining based inverted microscopic analysis; assay type: functional, cell-based; conditions: dose 1-3 µM, time 10.0 day
MGC-803 [6] = experiment: Antitumor activity against human MGC-803 cells xenografted in NOD-SCID mouse assessed as tumor growth inhibition at 25 mg/kg, IG administered for 21 days; assay type: functional; conditions: MGC-803, po, 504 h, time 21 day, read-out: TGI
PC-3 [7] = experiment: Upregulation of p21 protein expression in human PC-3 cells at 5 to 15 uM incubated for 48 hrs by Western blotting analysis; assay type: functional, cell-based; conditions: dose 5-15 µM
PC-3 [8] = experiment: Induction of cell cycle arrest in human PC-3 cells assessed as cells at G0/G1 phase at 7.5 uM incubated for 36 hrs by PI staining based flow cytometry (reference value: 54.5%); assay type: functional
MGC-803 [9] = experiment: Upregulation of p21 protein expression in human MGC-803 cells at 15 uM by Western blotting analysis; assay type: functional, cell-based; conditions: time 6-48 hrs, TDE = time-dependent effect
PC-3 [10] = experiment: Induction of cell cycle arrest in human PC-3 cells assessed as cells at S phase at 15 uM incubated for 48 hrs by PI staining based flow cytometry (reference value: 22.9%); assay type: functional
MGC-803 [11] = experiment: Antitumor activity against human MGC-803 cells xenografted in IG dosed NOD-SCID mouse assessed as inhibition of tumor proliferation administered for 21 days; assay type: functional, organism-based; conditions: dose 25-50 mg/kg, time 21.0 day
[12] = Cmax in Sprague-Dawley rat at 50 mg/kg, po measured upto 24 hrs by LC/MS-MS analysis; assay type: ADME, organism-based; conditions: in vivo
PC-3 [13] = experiment: Inhibition of cell proliferation in human PC-3 cells at 2 to 50 uM by MTT assay; assay type: functional, cell-based; conditions: dose 2-50 µM, time 24-72 hrs, TDE = time-dependent effect
[14] = Toxicity against NOD-SCID mouse assessed as change in spleen morphology at 25 to 50 mg/kg, IG administered for 21 days by H and E staining based assay; assay type: organism-based; conditions: in vivo, po, 504 h, dose 25-50 mg/kg, time 21 day
PC-3 [15] = experiment: Induction of cell cycle arrest in human PC-3 cells assessed as cells at G0/G1 phase at 15 uM incubated for 6 hrs by PI staining based flow cytometry (reference value: 55.1%); assay type: functional
PC-3 [16] = experiment: Inhibition of cell proliferation in human PC-3 cells incubated for 24 to 72 hrs by MTT assay; assay type: functional, cell-based; conditions: dose 2-50 µM, time 24-72 hrs
MGC-803 [17] = experiment: Induction of cell cycle arrest in human MGC-803 cells assessed as cells at S phase at 7.5 uM incubated for 36 hrs by PI staining based flow cytometry (reference value: 18.2%); assay type: functional
[18] = Toxicity against NOD-SCID mouse assessed as change in heart morphology at 25 to 50 mg/kg, IG administered for 21 days by H and E staining based assay; assay type: organism-based; conditions: in vivo, po, 504 h, dose 25-50 mg/kg, time 21 day
PC-3 [19] = experiment: Induction of cell cycle arrest in human PC-3 cells assessed as cells at S phase at 5 uM incubated for 36 hrs by PI staining based flow cytometry (reference value: 22.8%); assay type: functional
MGC-803 [20] = experiment: Upregulation of p27 protein expression in human MGC-803 cells at 5 to 15 uM incubated for 48 hrs by Western blotting analysis; assay type: functional, cell-based; conditions: dose 5-15 µM
PC-3 [21] = experiment: Inhibition of colony formation in human PC-3 cells at 3 uM incubated for 10 days by crystal violet staining based inverted microscopic analysis; assay type: functional, cell-based; conditions: time 10.0 day
[22] = Half-life in Sprague-Dawley rat at 50 mg/kg, po measured upto 24 hrs by LC/MS-MS analysis; assay type: ADME, organism-based; conditions: in vivo
MGC-803 [23] = experiment: Induction of cell cycle arrest in human MGC-803 cells assessed as cells at S phase at 15 uM incubated for 36 hrs by PI staining based flow cytometry (reference value: 18.2%); assay type: functional
PC-3 [24] = experiment: Inhibition of DNA synthesis in human PC-3 cells incubated for 24 hrs by EdU staining based fluorescence microscopic analysis; assay type: functional, cell-based
MGC-803 [25] = experiment: Induction of cell cycle arrest in human MGC-803 cells assessed as cells at S phase at 15 uM incubated for 24 hrs by PI staining based flow cytometry (reference value: 19.6%); assay type: functional
MGC-803 [26] = experiment: Induction of cell cycle arrest in human MGC-803 cells assessed as cells at S phase at 15 uM incubated for 12 hrs by PI staining based flow cytometry (reference value: 19.6%); assay type: functional
[27] = Half-life in Sprague-Dawley rat at 1 mg/kg, iv measured upto 24 hrs by LC/MS-MS analysis; assay type: ADME, organism-based; conditions: in vivo
MGC-803 [28] = experiment: Inhibition of cell proliferation in human MGC-803 cells incubated for 24 to 72 hrs by MTT assay; assay type: functional, cell-based; conditions: dose 2-50 µM, time 24-72 hrs
PC-3 [29] = experiment: Induction of cell cycle arrest in human PC-3 cells assessed as cells at S phase at 15 uM incubated for 24 hrs by PI staining based flow cytometry (reference value: 22.9%); assay type: functional
MGC-803 [30] = experiment: Induction of cell cycle arrest in human MGC-803 cells assessed as cells at G0/G1 phase at 15 uM incubated for 24 hrs by PI staining based flow cytometry (reference value: 57.9%); assay type: functional
PC-3 [31] = experiment: Induction of cell cycle arrest in human PC-3 cells assessed as cells at G2/M phase at 5 uM incubated for 36 hrs by PI staining based flow cytometry (reference value: 21.3%); assay type: functional
PC-3 [32] = experiment: Inhibition of cell proliferation in human PC-3 cells incubated for 72 hrs by MTT assay; assay type: functional, cell-based; conditions: PC-3, 72 h
[33] = MRT(infinity) in Sprague-Dawley rat at 50 mg/kg, po measured upto 24 hrs by LC/MS-MS analysis; assay type: ADME, organism-based; conditions: in vivo
PC-3 [34] = experiment: Induction of cell cycle arrest in human PC-3 cells assessed as cells at S phase at 15 uM incubated for 12 hrs by PI staining based flow cytometry (reference value: 22.9%); assay type: functional
[35] = AUCinfinity in Sprague-Dawley rat at 50 mg/kg, po measured upto 24 hrs by LC/MS-MS analysis; assay type: ADME, organism-based; conditions: in vivo
PC-3 [36] = experiment: Induction of cell cycle arrest in human PC-3 cells assessed as cells at G2/M phase at 15 uM incubated for 24 hrs by PI staining based flow cytometry (reference value: 21.4%); assay type: functional
[37] = MRT(infinity) in Sprague-Dawley rat at 1 mg/kg, iv measured upto 24 hrs by LC/MS-MS analysis; assay type: ADME, organism-based; conditions: in vivo
[38] = AUClast in Sprague-Dawley rat at 50 mg/kg, po measured upto 24 hrs by LC/MS-MS analysis; assay type: ADME, organism-based; conditions: in vivo

Activity [4]: Active
Cmax [12]: 168 ng/mL
half-life [22]: 9.1 h
t1/2 [27]: 1.49 h
IC50 (PC-3 [32]): 11.7 µM
MRT inf [33]: 10.2 h
AUC(0-inf) [35]: 1070 ng·h/mL
MRT [37]: 6.28 h
AUC(0-t) at 24 h [38]: 906 ng·h/mL
SMILES: COc1ccc(-c2cc(C)nc3nc(SCc4ccc(Br)cc4)nn23)c(OC)c1
Activity (MGC-803 [1]): 45.1%
Activity (PC-3 [2]): Tde
Activity (PC-3 [3]): 44.3%
inhibition (MGC-803 [5]): Dose-Dependent Effect
inhibition in vivo at 25 mg/kg (MGC-803 [6]): 50.9%
Activity (PC-3 [7]): Active
Activity (PC-3 [8]): 39%
Activity (MGC-803 [9]): Tde
Activity (PC-3 [10]): 39.8%
Activity (MGC-803 [11]): Dose-Dependent Effect
inhibition (PC-3 [13]): Tde
Activity [14]: Non-Toxic
Activity (PC-3 [15]): 52.8%
inhibition (PC-3 [16]): Dose-Dependent Effect
Activity (MGC-803 [17]): 35.8%
Activity [18]: Non-Toxic
Activity (PC-3 [19]): 28.1%
Activity (MGC-803 [20]): Active
inhibition (PC-3 [21]): Active
Activity (MGC-803 [23]): 44.3%
inhibition (PC-3 [24]): Dose-Dependent Effect
Activity (MGC-803 [25]): 38.9%
Activity (MGC-803 [26]): 31.2%
inhibition (MGC-803 [28]): Dose-Dependent Effect
Activity (PC-3 [29]): 38.6%
Activity (MGC-803 [30]): 40.4%
Activity (PC-3 [31]): 19.9%
Activity (PC-3 [34]): 32.6%
Activity (PC-3 [36]): 21.1%
